Assay results from patent US9227967B2, “Inhibitor compounds of semicarbazide-sensitive amine oxidases” (Proximagen Limited, priority 2010, dated 2016).

target: T1, human SSAO (Homo sapiens, UniProt Q16853); assay: SSAO enzyme inhibition assay (benzylamine substrate; HRP-coupled hydrogen peroxide detection or 14C-benzaldehyde detection); type: biochemical; conditions: purified recombinantly expressed human SSAO, benzylamine as substrate, r.t.; read-out: SSAO inhibitory activity IC50
T1 construct: made in house
T1 sequence (Q16853 29-763 limits assumed): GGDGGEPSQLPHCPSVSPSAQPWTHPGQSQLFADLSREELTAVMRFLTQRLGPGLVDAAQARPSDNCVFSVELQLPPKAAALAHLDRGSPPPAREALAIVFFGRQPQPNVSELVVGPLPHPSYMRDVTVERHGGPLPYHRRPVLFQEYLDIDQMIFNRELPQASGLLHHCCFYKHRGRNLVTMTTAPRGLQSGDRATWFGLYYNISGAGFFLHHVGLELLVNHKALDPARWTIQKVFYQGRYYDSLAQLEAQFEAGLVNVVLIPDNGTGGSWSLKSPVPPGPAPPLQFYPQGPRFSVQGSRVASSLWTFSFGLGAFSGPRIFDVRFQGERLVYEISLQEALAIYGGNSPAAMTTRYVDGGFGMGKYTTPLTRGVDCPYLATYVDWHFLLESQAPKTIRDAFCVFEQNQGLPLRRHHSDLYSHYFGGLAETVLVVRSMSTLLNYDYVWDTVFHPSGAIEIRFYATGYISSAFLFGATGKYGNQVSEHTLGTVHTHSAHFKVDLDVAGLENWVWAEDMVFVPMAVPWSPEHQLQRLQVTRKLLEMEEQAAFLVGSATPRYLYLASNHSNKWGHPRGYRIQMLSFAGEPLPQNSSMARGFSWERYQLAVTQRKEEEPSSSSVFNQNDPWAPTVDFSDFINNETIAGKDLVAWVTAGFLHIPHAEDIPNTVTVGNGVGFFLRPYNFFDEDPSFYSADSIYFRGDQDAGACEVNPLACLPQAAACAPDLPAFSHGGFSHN
Procedure, shortened: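 Purified recombinant human SSAO, pre-incubated ~15 min at r.t. with compound, then benzylamine added; final DMSO ≦2%. HRP-coupled Amplex format in 50 mM sodium phosphate pH 7.4: enzyme 1 μg/ml, benzylamine 100 μM (≈Km), fluorescence over 1-2 h; 14C format: enzyme 10 μg/ml, benzylamine 40 μM, 1 h. IC50 from four-parameter fit.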

**Q.** `Cc1ccc(-n2nc(C3CCOCC3)c3ccncc32)c(C)c1` [Compound 45, 1-(2,4-Dimethylphenyl)-3-(oxan-4-yl)-1H-pyrazolo[3,4-c]pyridine] was tested. Which IC50 did it give?
**A.** The IC50 was 500 to 2500 nM.

**Q.** Which IC50 does the source give for `NCCC(=O)N1CCN(c2nn(-c3ccc(Cl)cc3)c3cnccc23)CC1` [Compound 76] here?
**A.** Its IC50 is 100 to 500 nM.

**Q.** How did the IC50 turn out when `COC(=O)C1COCCN1c1nn(-c2ccc(C)cc2)c2cnccc12` (stereo not drawn) [Compound 66, Methyl 4-[1-(4-methylphenyl)-1H-pyrazolo[3,4-c]pyridin-3-yl]morpholine-3-carboxylate] was run?
**A.** Its IC50 is less than 100 nM.

**Q.** How did the IC50 turn out when `Clc1ccc(-n2nc(C3CCOCC3)c3ccncc32)cc1` [Compound 80, 1-(4-Chlorophenyl)-3-(oxan-4-yl)-1H-pyrazolo[3,4-c]pyridine] was run?
**A.** Its IC50 is 100 to 500 nM.

**Q.** `OCCN1CCC(c2cn(-c3ccc(Cl)cc3)c3cnccc23)CC1` [Compound 18, 2-{4-[1-(4-Chlorophenyl)-1H-pyrrolo[2,3-c]pyridin-3-yl]piperidin-1-yl}ethan-1-ol] was tested. Which IC50 did it give?
**A.** The IC50 was 100 to 500 nM.

**Q.** `O=C(CO)N1CCC(c2cn(-c3ccc(Cl)cc3)c3cnccc23)CC1` [Compound 15, 1-{4-[1-(4-Chlorophenyl)-1H-pyrrolo[2,3-c]pyridine-3-yl]piperidin-1-yl}-2-hydroxyethan-1-one] was tested. Which IC50 did it give?
**A.** The IC50 was less than 100 nM.
